Measured values: patent US20260002132A1, “METHOD FOR PRODUCING RENAL COLLECTING DUCT CELLS AND PELVIC EPITHELIAL CELLS” (Kyoto University, priority 2022, published 2026)
Read-outs that look alike come from different tables or passages of the source.

Legend:
[1] = tested on: ureteric bud cells derived from Tet-On-ELF5-1231A3 iPS cells; format: cell-based, human; settings: for effect on AQP2 expression in combination with IBMX: factor added together with IBMX
Experimental: Ureteric bud organoids on Day 6 were prepared from the Tet-On-ELF5-1231A3 iPS cells using the method previously described (WO2021/066076). In a 1.5 mL tube, 10 ureteric bud organoids were collected and washed twice with 500 μL PBS. 100 μL Accutase was added thereto, and the mixture was incubated for 3 minutes at 37° C., 5% CO2. The ureteric bud organoids were completely transformed into single cells by pipetting, and 900 μL DMEM/10% PBS was added thereto to count cells.
To a 24-well plate (6-well, 12-well, 48-well or 96-well plate, or 6-well, 12-well, or 24-well transwell plate may also be used), the necessary amount of suspension was collected to achieve 0.25 to 1.0×10^5 cells/cm^2, and centrifuged at 300 G for 5 minutes. The cell count was preferably 1×10^5 cells/cm^2. After removing the supernatant, cells were resuspended in a medium comprising DMEM/F12 GlutaMAX+B-27 Supplement minus vitamin A having 10% FBS, 1 μM A83-01, and 1 μM IWR-1 (renal collecting duct progenitor cell-induction medium) added thereto, to which 0.125 μg/cm^2 iMatrix-511 silk and 10 μM Y-27632 were added, and the suspension was adjusted and seeded so that each well contains 500 μL of the suspension. 0.1 μM TTNPB may be further added the medium.
The medium may further comprise 0.1 μM TTNPB, 100 nM desmopressin (dDAVP), 10 nM aldosterone, and 100 nM K252a, and preferably a medium comprising 3 agents of TTNPB, dDAVP, and aldosterone is suitable. Thereafter, the medium was replaced once every 2 days, and the induction into the principal cells was completed on Day 4.
The cultured cells were washed twice with PBS, and then, fixed with 4% PFA at 4° C. for 20 minutes. The cells were washed twice with PBS, and then, blocked using 2% normal donkey serum (MERCK)/PBT (PBS/0.25% Triton X-100, Nacalai tesque, Inc.) (blocking solution) at room temperature for 1 hour. Each primary antibody was diluted with the blocking solution at a rate of 1:200, and left to stand with samples at 4° C. for 24 hours. After washing twice with 0.25% PBT, each secondary antibody was diluted with the blocking solution at a rate of 1:500, and left to stand with samples at room temperature for 2 hours. The cells were observed using a microscope such as BZX-700 (Keyence Corporation).

[2] = tested on: renal collecting duct principal cell-containing organoid; test: Functional evaluation of renal collecting duct principal cell-containing organoids (water uptake, cystoid structure); format: cell-based, human; settings: organoid on Day 6 of the induction
Experimental: Ureteric bud organoids on Day 6 were prepared from the Tet-On-ELF5-1231A3 iPS cells using the method previously described (WO2021/066076). The medium was removed and replaced with the renal collecting duct progenitor cell-induction medium of 100 μL/well. 0.1 μM TTNPB may be further added the medium.
3 days later, the medium was replaced with the renal collecting duct principal cell-induction medium of 100 μL/well. The medium may further comprise 0.1 μM TTNPB, 100 nM dDAVP, 10 nM aldosterone, and 100 nM K252a, and preferably a medium comprising 3 agents of TTNPB, dDAVP, and aldosterone is suitable. The medium was replaced once every 2 days, and the preparation of principal cell-containing organoids was completed on Day 6.
The functional evaluation tests were performed on the renal collecting duct principal cell-containing organoids. For the renal collecting duct principal cell-containing organoid on Day 6 of the induction, the medium was replaced with a renal collecting duct principal cell-induction medium, to which 1 μM dDAVP, or with 1 μM dDAVP and 10 μM tolvaptan were added.

[3] = tested on: mouse renal collecting duct principal cell lines; settings: previously reported (Ando F. et al., Nat Commun. 2018); cited from earlier work
[4] = tested on: renal collecting duct principal cells; test: Apical-basal polarity of AQP2 in renal collecting duct principal cells, transwell culture; format: cell-based, human; settings: 100 nM dDAVP added to the medium in the lower chamber
Experimental: Ureteric bud organoids on Day 6 were prepared from the Tet-On-ELF5-1231A3 iPS cells using the method previously described (WO2021/066076). In a 1.5 mL tube, 10 ureteric bud organoids were collected and washed twice with 500 μL PBS. 100 μL Accutase was added thereto, and the mixture was incubated for 3 minutes at 37° C., 5% CO2. The ureteric bud organoids were completely transformed into single cells by pipetting, and 900 μL […] was added thereto to count cells. To evaluate the apical-basal polarity, the cells were seeded on a Transwell 12-well plate (Corning Inc., 3460). Specifically, the necessary amount of suspension was collected to achieve 0.5 to 2×10^5 cells/cm^2, and centrifuged at 300 G for 5 minutes. The cell count was preferably 1×10^5 cells/cm^2. After removing the supernatant, cells were resuspended in the renal collecting duct progenitor cell-induction medium, to which 0.125 μg/cm^2 iMatrix-511 silk and 10 μM Y-27632 were added, and the suspension was adjusted and seeded in the upper chamber so that each well contains 300 μL of the suspension. 0.1 μM TTNPB may be further added the medium. 2 or 3 days later, the medium in the upper chamber was removed, and 300 μL renal collecting duct principal cell-induction medium was placed in the lower chamber. […]

[5] = factor added to principal cell-induction medium excluding IBMX, planar culture
[6] = 400 μM IBMX with 4 μM doxycycline in renal collecting duct progenitor cell-induction medium

C[C@]12CCC(=O)C=C1CC[C@@H]1[C@@H]2[C@@H](O)C[C@]2(C=O)[C@@H](C(=O)CO)CC[C@@H]12 [ALD, aldosterone]
AQP2 expression [1, 5]: the AQP2 expression was not promoted | effect on AQP2 expression in combination with IBMX ([1]; planar culture): functioned additively with the addition of IBMX

NC(=O)CC[C@@H]1NC(=O)[C@H](Cc2ccccc2)NC(=O)[C@H](Cc2ccc(O)cc2)NC(=O)[C@@H](N)CSSC[C@@H](C(=O)N2CCC[C@H]2C(=O)N[C@@H](CCCN=C(N)N)C(=O)NCC(N)=O)NC(=O)[C@H](CC(N)=O)NC1=O [AVP, arginine vasopressin]
AQP2 expression [1, 5]: the AQP2 expression was not promoted | effect on AQP2 expression in combination with IBMX ([1]; planar culture): functioned additively with the addition of IBMX

CC(C)Cn1c(=O)n(C)c(=O)c2[nH]cnc21 [IBMX, 3-isobutyl-1-methylxanthine]
AQP2 expression [1, 6]: early expressed AQP2 | AVPR2 expression [1, 6]: expressed AVPR2 | AQP2 expression ([1]; IBMX added with dDAVP, or with either of AVP and dDAVP, ALD and K252a, planar culture): the AQP2 expression was promoted | number of AQP2-expressing cells ([1]; IBMX at concentrations up to 400 μM, with 4 μM doxycycline): concentration-dependently increased

COC(=O)[C@@]1(O)C[C@H]2O[C@]1(C)n1c3ccccc3c3c4c(c5c6ccccc6n2c5c31)C(=O)NC4 [K252a]
AQP2 expression [1, 5]: the AQP2 expression was not promoted | effect on AQP2 expression in combination with IBMX ([1]; planar culture): functioned additively with the addition of IBMX

NC(=O)CC[C@@H]1NC(=O)[C@H](Cc2ccccc2)NC(=O)[C@H](Cc2ccc(O)cc2)NC(=O)CCSSC[C@@H](C(=O)N2CCC[C@H]2C(=O)N[C@H](CCCN=C(N)N)C(=O)NCC(N)=O)NC(=O)[C@H](CC(N)=O)NC1=O [dDAVP, 1-desamino-8-D-arginine vasopressin]
water uptake and cystoid structure formation ([2]; 1 μM dDAVP): water uptake was promoted from the next day, and a cystoid structure was formed | effect on AQP2 expression in combination with IBMX ([1]; planar culture): functioned additively with the addition of IBMX | AQP2 expression and apical polarization [3]: promotes AQP2 expression and causes apical polarization | polarization of AQP2 expression [4]: increase in polarization of AQP2 expression to the contralateral side

Cc1ccccc1C(=O)Nc1ccc(C(=O)N2CCCC(O)c3cc(Cl)ccc32)c(C)c1 (stereo not drawn) [tolvaptan]
formation of a cystoid structure ([2]; 10 μM tolvaptan together with 1 μM dDAVP): the formation of a cystoid structure was suppressed
